“And” between values parts separate entries of the source, which are not always exact repeats. Equal entries are not always repeated.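 These data come from cells grown in 96-well plates and exposed to compound for 48 hours at five concentrations. GI50 is the concentration that inhibits growth by half. The concentration for full growth arrest is given as TGI.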
Experiments:
Experiment in all cases: NCI tumour cell line growth inhibition, 48 h
CCRF-CEM leukemia = test system: CCRF-CEM leukemia
U251 CNS = test system: U251 CNS
MCF7 breast = test system: MCF7 breast
T-47D breast = test system: T-47D breast
SK-MEL-28 melanoma = test system: SK-MEL-28 melanoma
HS 578T breast = test system: HS 578T breast
A549 NSCLC = test system: A549 NSCLC
M14 melanoma = test system: M14 melanoma
MDA-N = test system: MDA-N
RXF 393 renal = test system: RXF 393 renal

Compound | TGI (CCRF-CEM leukemia) [µM] | TGI (U251 CNS) [µM] | TGI (MCF7 breast) [µM] | TGI (T-47D breast) [µM] | TGI (SK-MEL-28 melanoma) | TGI (HS 578T breast) [µM] | TGI (A549 NSCLC) | TGI (M14 melanoma) | TGI (MDA-N) [µM] | TGI (RXF 393 renal) | GI50 (T-47D breast) | GI50 (SK-MEL-28 melanoma)
N=c1c2sc3nc4ccccc4n3c2ncn1Cc1ccccc1 | > 100 | > 100 | > 100 | > 100 | > 100 µM | > 100 | > 100 µM | > 100 µM | > 100 | > 100 µM | – | –
CCO/C(O)=C(/C(=N)N1CCOCC1)C(=O)Nc1cccc(C(F)(F)F)c1 | > 100 | > 100 | > 100 | > 100 | > 100 µM | > 100 | > 100 µM | > 100 µM | > 100 | > 100 µM | – | –
Cc1sc2c(c1C)C(=O)c1cccn1-2 | > 100 | > 100 | > 100 | > 100 | > 100 µM | > 100 | > 100 µM | > 100 µM | > 100 | > 100 µM | – | –
N/C(=N\N=C\c1cc2ccccc2s1)c1cnccn1 | > 100 | > 100 | > 100 | > 100 | > 100 µM | > 100 | > 100 µM | > 100 µM | > 100 | > 100 µM | – | –
Cc1ccsc1/C=N/NC1=NCCN1 | > 100 | > 100 | > 100 | > 100 | > 100 µM | > 100 | > 100 µM | > 100 µM | > 100 | > 100 µM | – | –
COc1ccc(/C=C2/N=C(N/N=C\C(O)C(O)C(O)CO)NC2=O)cc1 (configuration not stated) | > 100 | > 100 | > 100 | > 100 | > 100 µM | > 100 | > 100 µM | > 100 µM | > 100 | > 100 µM | 87.7 µM and 33.2 µM | > 100 µM and 31.3 µM
Cn1c(N/N=C/c2ccccc2)nc(-c2ccc3c(c2)OCO3)c(C#N)c1=O | > 100 | > 100 | > 100 | > 100 | > 100 µM | > 100 | > 100 µM | > 100 µM | > 100 | > 100 µM | – | –
CCN(CC)CCNc1c2ccccc2nc2cccc([N+](=O)[O-])c12 | 0.48 | 0.0775 | 0.0063 | 0.0661 | 0.0566 µM and 0.152 µM | 0.039 | 0.018 µM and 0.0391 µM | 0.0188 µM and 0.0245 µM | 0.00373 | 0.0351 µM and 0.0112 µM | – | –
Nc1nc(Cl)cc(NCC2(CO)CCCCC2)n1 | > 100 | > 100 | > 100 | > 100 | > 100 µM | > 100 | > 100 µM | > 100 µM | > 100 | > 100 µM | – | –
COc1ccccc1C1C2=C(COC2=O)Oc2cc3c(cc21)OCO3 (configuration not stated) | 16.8 | > 100 | > 89.9 | > 100 | > 76 µM | 13.3 | > 100 µM | > 33.4 µM | 0.763 | 6.13 µM | – | –
CN(C(=O)[C@H](NC(=O)OCc1ccccc1)c1ccccc1)C1CCCCC1N1CCCC1 (some centres not stated) | > 100 | > 100 | > 100 | > 100 | > 100 µM | 77.2 | > 100 µM | 56.4 µM | > 100 | > 100 µM | – | –
c1ccc(-c2cnc(SC(c3ccccc3)c3ccccc3)[nH]2)cc1 | > 100 | > 100 | 74.7 | 54.7 | > 100 µM | > 100 | > 100 µM | > 100 µM | 69.6 | 78.5 µM | – | –
COC(=O)C1OC(O[C@H]2CC[C@]3(C)[C@H]4CC=C5[C@@H]6CC(C)(C)CC[C@]6(C(=O)OC)CC[C@@]5(C)[C@]4(C)CC[C@H]3C2(C)C)C(O)C(O)C1O (some centres not stated) | 23.2 | 25.1 | 29.2 | 40.9 | 32.7 µM | 46.8 | 22.5 µM | 30 µM | 30.9 | 18.2 µM | – | –
Cc1ccc(C2(O)c3ccccc3C(=O)N(C)C2(O)c2ccc(C)cc2)cc1 (configuration not stated) | 39.3 | 40.1 | > 100 | > 100 | > 100 µM | 46.9 | > 100 µM | > 100 µM | > 100 | > 100 µM | – | –
COc1cccc(N/C(C)=C2/CCOC2=O)c1 | > 10 | > 10 | > 10 | > 10 | > 10 µM | > 10 | > 10 µM | > 10 µM | > 10 | > 10 µM | – | –
COc1ccc2c(c1)CC[C@@H]1[C@@H]2CC[C@]2(C)/C(=N/OCCN3CCCC3)CC[C@@H]12 | 3.67 | 10.4 | 8.92 | 9.64 | 2.82 µM | 7.29 | 7.7 µM | 2.64 µM | 3.98 | 4.16 µM | – | –

— PubChem BioAssay (NCI)
